In one assay the target is T1, Δ^5-lipoxygenase (Rattus norvegicus, UniProt P12527).
T1 construct: supernatant fraction of lysed rat basophilic leukemia (RBL-1) cells; endogenous in cells; host or cells: RBL-1 cells, 49,000 g supernatant of homogenate
T1 sequence (P12527 1-673): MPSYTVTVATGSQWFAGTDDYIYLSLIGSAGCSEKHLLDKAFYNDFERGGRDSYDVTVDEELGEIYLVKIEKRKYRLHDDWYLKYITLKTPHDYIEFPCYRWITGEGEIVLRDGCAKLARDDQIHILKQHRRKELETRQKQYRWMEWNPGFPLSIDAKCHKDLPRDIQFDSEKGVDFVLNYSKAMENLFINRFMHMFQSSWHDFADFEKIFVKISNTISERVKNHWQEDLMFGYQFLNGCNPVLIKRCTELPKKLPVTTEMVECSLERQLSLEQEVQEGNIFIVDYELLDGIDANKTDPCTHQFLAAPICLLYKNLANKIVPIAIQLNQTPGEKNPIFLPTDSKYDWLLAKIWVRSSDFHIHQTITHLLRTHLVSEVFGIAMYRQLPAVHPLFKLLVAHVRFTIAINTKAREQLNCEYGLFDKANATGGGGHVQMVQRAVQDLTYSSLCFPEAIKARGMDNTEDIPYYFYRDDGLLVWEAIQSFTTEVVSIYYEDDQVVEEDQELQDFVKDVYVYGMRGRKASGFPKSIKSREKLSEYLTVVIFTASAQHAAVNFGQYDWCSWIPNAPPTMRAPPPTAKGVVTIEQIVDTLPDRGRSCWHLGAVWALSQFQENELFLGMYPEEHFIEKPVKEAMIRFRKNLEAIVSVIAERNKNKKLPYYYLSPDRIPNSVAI
The experiment in a line: ability to inhibit Δ^5-lipoxygenase. In kind it is biochemical. As to conditions: RBL-1 cell supernatant. As to the method: This enzyme is believed to initiate the synthesis of slow reacting substance of […]), an important mediator in the pathogenesis of asthma. Thus, a drug capable of inhibiting this enzyme would also help to prevent asthmatic attacks. In this determination, Δ^5 -lipoxygenase was derived from the supernatant fraction of lysed rat basophilic leukemia (RBL-1) cells. […] The Δ^5 -lipoxygenase was derived from RBL-1 cells which were lysed by homogenization in ice-cold buffer (50 mM Tris-HCl buffer, pH 7.2, containing 1 mM EDTA and 14 uM indomethacin). The homogenate was centrifuged at 4 ° C. at 49,000 g for 20 min and the resulting supernatant fraction was used as the source of Δ^5 -lipoxygenase. The enzyme was assayed at 37° using 6.7 uM (0.39 uCi/ml) [1-14C]arachidonic acid as the substrate in 50 mM Tris-HCl buffer, pH 7.2, containing 1 mM gluthatione, 3 mM CaCl2, 14 uM indomethacin, and 0.25 to 0.50 mM EDTA. […] The effect of compounds on Δ^5 -lipoxygenase activity was determined by preincubating the enzyme for 10 min at 30° in the presence or absence of various concentrations of the drug prior to addition of substrate.

A further assay has as its system B16 Melanoma. The experiment in a line: activity vs B16 melanoma (T/C % survival), Table 4. In kind it is in vivo, mice. As to conditions: nine days, >120 significant. The protocol:
The drugs were also used to treat melanotic melanoma B16. The protocol for testing against this tumor is as follows:
0.5 ml. of a tumor homogenate prepared by homogenizing 1 g. of tumor with 10 ml. of cold balanced solution is implanted ip in groups of 10 B6 C3 F1 mice. The drug is administered daily for a total of nine days starting one day after tumor inoculation. The results are expressed as mean survival time of treated group versus control group (T/C) as a percent.

For the next assay, the system named is L1210 leukemia. The experiment in a line: antitumor activity in L1210 leukemia (percent increase in survival time), Table 2. Type of assay: in vivo, mice. As to conditions: Mus musculus, L1210, 192 h, 8 days; for ILS at 300 mg/kg: 300 mg/kg ip daily. The protocol:
Testing of the compounds of this invention against L-1210 lymphoid leukemia were carried out as follows: L-1210 leukemia was maintained by weekly passage of 10^5 L-1210 cells intraperitoneally into DBA/2 mice. Diluted ascitic fluid, 0.1 ml. (10^5 cells), was administered ip to female B6D2 F1 mice weighing about 20 g. Drugs were administered ip 24 hours after tumor transplantation and injections were continued daily for a total of eight days. A group of control mice receiving only the injection medium were maintained. Table 2 which follows gives the antitumor activity against L-1210 leukemia for certain compounds of this invention. In the table, column 1 gives the name of the compound, column 2 the dose in mg./kg., and column 3 the percent increase in survival time over controls at each dose level.

A short description of assay [1]: free radical scavenging ability (destruction of diphenylpicrylhydrazyl), Table 7. Particulars: 100 μM diphenylpicrylhydrazyl in acetone; test compound 25 μM, 2.5 μM (footnote). The source says: It is believed that the antineoplastic activity of the compounds of this invention is due in parts to their ability to scavenge free-radicals. Additionally, the compounds of this invention are cancer protective agents and this utility also may be a manifestation of their free-radical scavenging capability. Free-radical scavenging agents may also be useful in detoxifying mammals in whom an excess of free radicals is a cause and/or result of the toxicity. Other possible uses of free radical scavengers are to inhibit protaglandin transformation, leucotriene interconversion and lipogenesis, to act as inflammatory modulators and as food additive or preservatives to prevent lipid oxidation. The free radical scavenging ability of the compounds of the invention was determined by measuring the destruction of the stable free radical, diphenylpicrylhydrazyl, in the presence of the test compound in a manner similar to that reported by […] and Herzmann, Naturwiss, 47, 133-134 (1960). […] The test compound was added at a final concentration of 25 μM and the rate of reduction of absorpotion at […] was observed. Table 7 below gives the free radical scavenging abilities of the compounds of this invention expresses as the initial rate of decrease in optical density units/min.

Structures are written as SMILES. Several values for one entry are separate records, joined by “and”; a condition that tells them apart may be missing. Identical values can stand only once. Counter-ions that a name gives are not always drawn.

Regarding `NC(=NO)c1ccc(O)c(O)c1` [3,4-dihydroxybenzamidoxime.HCl, 3,4-dihydroxybenzamidoximehydrochloride], at Δ^5-lipoxygenase (1 uM), the inhibition at 1 µM came out at 25%. The compound further registered an inhibition at 10 µM on Δ^5-lipoxygenase of 94%. For the same compound, the “T/C % (mean survival time)” value in the assay with B16 Melanoma (25 mg/kg daily) is reported as 119%; in the assay on B16 Melanoma (50 mg/kg daily), 127%; in the assay on B16 Melanoma (100 mg/kg daily), 129%; with B16 Melanoma (200 mg/kg daily) it was 134%; in the assay with B16 Melanoma (400 mg/kg daily) it was 117%; in the assay with B16 Melanoma (800 mg/kg daily), “toxic”. Also, the increase in lifespan (ILS) at 157 mg/kg in the assay with L1210 leukemia (157 mg/kg ip daily) stood at 132%. The compound also registered an ILS at 200 mg/kg with L1210 leukemia (200 mg/kg ip daily) of 43.5%. This compound also registered an increase in life span (ILS) at 238 mg/kg in the assay with L1210 leukemia (238 mg/kg ip daily) of 46.9%. Also, the ILS at 300 mg/kg in the assay with L1210 leukemia amounted to 73.9%. The “initial rate of decrease in optical density (518 nm)” value in assay [1] was 0.718 units/min.

`CCOC(=N)c1cc(O)c(O)c(O)c1` [ethyl 3,4,5-trihydroxybenzamidate-HCl, Ethyl 3,4,5-trihydroxybenzamidate hydrochloride] gave an inhibition at 10 µM against Δ^5-lipoxygenase of 86%. In addition, the “T/C % (mean survival time)” value with B16 Melanoma (25 mg/kg daily) is 105%; in the assay on B16 Melanoma (50 mg/kg daily, listed as ethyl gallamidate.HCl, hydrochloride) it was 109% and 104%; with B16 Melanoma (100 mg/kg daily, listed as ethyl gallamidate.HCl, hydrochloride), 121% and 109% and 107%; with B16 Melanoma (200 mg/kg daily, listed as ethyl gallamidate.HCl, hydrochloride) it was 121% and 125% and 122%; in the assay with B16 Melanoma (400 mg/kg daily, listed as ethyl gallamidate.HCl, hydrochloride) it was 124% and 156% and 137%. The ILS at 300 mg/kg in the assay with L1210 leukemia turned out to be 42.3%. The same compound returned an ILS at 450 mg/kg with L1210 leukemia (450 mg/kg ip daily) of 58.4%. Further, in assay [1], the “initial rate of decrease in optical density (518 nm)” value turned out to be 3.730 units/min.
